The source of these data is US20100021567A1, “Peganine Isolated from Anisotes Trisulcus L. as a Smoking Deterrent and Anorxigenic Agent” (priority 2006, published 2010).

“Also recorded” adds a separate entry of the source.

One data set concerns Albino mice. Put plainly: Nicotine-induced convulsions and death in mice. Type of data set: in vivo. As for the experimental part: Albino mice were divided into different groups (N=5) and injected with different doses of nicotine dissolved in water. The animals were injected (i.p) with doses 0.8, 1.6, 3.2 and 6.4 mg/kg. The animals were continuously observed for 2 hours for appearance of any changes in behavior such as tremors, convulsions (clonic or tonic), abnormal movements changes in tail position and shapes, changes in locomotor activity and death.
Then after 5 minutes nicotine LD25 was then administered and the animals were observed continuously for any changes in behavior, convulsions or death. The time of convulsions and death were recorded.

For data set [1] the following is noted: in vivo; cited from earlier work.
Data set [2] concerns dopamine turnover in the mesolimbic system. Conditions: dose 5.6 mg/kg; nicotine 1 mg/kg; rats; cited from earlier work.
Another data set deals with Male Wistar rats. Put plainly: Nicotine and food consumption in rats. Format: in vivo. How it is done:
Male Wistar rats (200 g body weight) were divided at random into various groups (N=6 animals per group). Each animal was placed in a stainless steel cage and provided with a known weight of normal rat chow food pellets and drinking bottle containing a known volume of aqueous 0.025% sodium carboxymethylcellulose containing either nicotine acid tartarate to provide a final concentration of 40 μg/ml (in case of control groups) or the same concentration of nicotine plus the indicated concentrations of the whole extract, one of its fractions or peganine. The latter were added in form of their emulsions in 0.25% aqueous sodium carboxymethylcellulose in volumes that provide a final concentration of 0.025% of sodium carboxymethylcellulose in the drinking fluid. The animals were allowed both food and the drinking liquid ad libitum. The room temperature where the animals were placed was maintained at 23±2° C. The light cycle was kept at 12 h light and 12 h dark. The relative humidity was maintained at 75±5%. Both food and drinking liquid consumptions were measured every 2 days and at the end of the treatment which continued for complete seven consecutive days.
All results were reported as their means±s. e. mean with N=number of experiments. Statistical significance between control and treated groups were performed using student's t-test.

The conditions of data set [3]: cited from earlier work.
The mark [4] stands for this setting: peganine 140 mg/100 ml (1.4 mg/ml) + nicotine 40 μg/ml, vs control.
[5] abbreviates: peganine 140 mg/100 ml + nicotine 40 μg/ml in drinking water, 7 days.

Turning to `CN1CCCC1c1cccnc1` (stereo not drawn) [Nicotine], the Actions result was “f) No death; also recorded: a) Increase in locomotor activity; also recorded: b) Raising of tail; also recorded: c) Tremors; also recorded: d) Shaking of the body; also recorded: e) Increase in respiratory rate” in the data set on Albino mice (Nicotine 1.6 mg/kg (i.p)), “a) Tremors; also recorded: b) Fanning of tail; also recorded: c) Convulsions (Clonic-type); also recorded: d) Tremors; also recorded: e) Salivation; also recorded: f) No death” in the data set with Albino mice (Nicotine 3.2 mg/kg (i.p)) and “a) Circular movements; also recorded: b) Convulsions; also recorded: c) Death after 3 minutes” in the data set with Albino mice (Nicotine 6.4 mg/kg (i.p)).
Consider (−)-cytisine, for which the “Blood brain barrier penetrability” value in data set [1] is reported as “poor blood brain barrier penetrability”.
As to `c1cnc2cc3c(cc2n1)[C@@H]1CNC[C@H]3C1` [vareniciline], the “Effect on nicotine-induced increase in dopamine turnover” value in data set [2] is recorded as “significantly blocked”.
On to `O[C@H]1CCN2Cc3ccccc3N=C12` [peganine, 1,2,3,9-tetrahydropyrolo[2,1-b]quinazolin-3-ol], for which, in the data set with Male Wistar rats (setting [4]), the “% decrease in food consumed” value is 77.8% and the “% decrease in nicotine consumed” value is on record as 79%. Besides, in the data set on Male Wistar rats (setting [5]), the “Liquid consumed daily per 200 g rat per day” value turned out to be 5.5 ± 0.13 mL, the “Quantity of food consumed per 200 g rat per day” value is reported as 5.66 ± 0.3 g and the “Quantity of nicotine consumed per day” value amounted to 0.22 mg. For the same molecule, the “Effect on isolated gut” value in data set [3] (isolated gut) is “inhibit peristalsis of isolated gut”. Moreover, the Cardiac effect entry in data set [3] (isolated heart) is “negative inotropic effect of peganine with reduced coronary flow”.
